According to patent US20070065471A1, “Cosmetic/dermatological applications of PPAR receptor activators” (GALDERMA RESEARCH & DEVELOPMENT S.N.C., priority 2003, published 2007):

What was measured:
[1] = test system: sebaceous glands; assay: Activity of PPAR activators on the size of sebaceous glands, daily topical application to rat back skin; format: in vivo, female Fuzzy or OFA rats; details: once daily 4 weeks, control (acetone) = 1.00
Method: The evaluation of the activity of the compounds according to the invention is performed by daily topical application (once a day, weekends included) to the skin of the back of female Fuzzy or OFA rats, for 4 weeks. 30 animals of 9/10 weeks old were divided into groups of 6 animals.
The evaluation method entails weighing the animals at the start and end of the test and in evaluating the size of the sebaceous glands on epidermal leaflets.
The animals are euthanized and the treated area (back) is then shaved and defatted. The 8 mm biopsy samples are then incubated in 1 M NaBr. After separating out the epidermis, photographs are taken of the sebaceous glands and the images obtained are then analyzed using the Tina software (quantification of the area of the sebaceous glands, arbitrary area unit [mm^2]), version 2.09 g sold by Raytest GmbH.
The statistical analysis is performed according to Student's t test (XL software sold by Microsoft)
The results are expressed as the mean of the inductions (“Mean RI”) with the value of the standard error of the mean (“SEM”).
Student's t test (“stat”): NS not significant • *p<0.05 • **p<0.01 • ***p<0.001

[2] = target: T1, PPAR gamma (Homo sapiens, UniProt P37231); assay: PPAR transactivation test, PPAR gamma (HeLN reporter cells); format: cell-based; details: luciferase reporter, Gal-hPPAR gamma, n.a. means not active, read-out: PPAR gamma Kd app
T1 sequence (P37231 238-505 limits assumed): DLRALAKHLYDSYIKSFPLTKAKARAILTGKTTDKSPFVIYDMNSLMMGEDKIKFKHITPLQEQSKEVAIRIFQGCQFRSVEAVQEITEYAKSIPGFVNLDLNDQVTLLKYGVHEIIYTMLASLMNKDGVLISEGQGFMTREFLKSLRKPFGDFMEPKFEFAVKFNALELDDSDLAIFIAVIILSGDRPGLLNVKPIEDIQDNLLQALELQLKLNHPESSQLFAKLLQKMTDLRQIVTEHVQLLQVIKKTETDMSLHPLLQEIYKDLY
Method: (§1) Activation of the PPAR receptors with an agonist (activator) in HeLN cells leads to the expression of a reporter gene, luciferase, which, in the presence of a substrate, generates light. The modulation of the PPAR receptors is measured by quantifying the luminescence produced after incubating the cells in the presence of a reference agonist. The ligands displace the agonist from its site. The measurement of the activity is performed by quantifying the light produced. This measurement makes it possible to determine the modulatory activity of the compounds according to the invention by determining the constant that represents the affinity of the molecule for the PPAR receptor. This value can fluctuate according to the basal activity and the expression of the receptor: it is referred to as Kd apparent (KdApp in nM).
(§2) Measurements are also taken for the total agonist controls with the same products.
(§3) The HeLN cell lines used are stable transfectants comprising the plasmids ERE-βGlob-Luc-SV-Neo (reporter gene) and PPAR (α, δ, γ) Gal-hPPAR. These cells are inoculated in 96-well plates at a rate of 10,000 cells per well in 100 µl of DMEN medium without phenol red and supplemented with 10% defatted calf serum. The plates are then incubated at 37° C. and 7% CO2 for 16 hours.
(§4) The various dilutions of the test products and of the reference ligand are added in a proportion of 5 µl per well. The plates are then incubated for 18 hours at 37° C., 7% CO2. The culture medium is removed by upturning and 100 μl of a 1:1 PBS/luciferin mixture are added to each well. After 5 minutes, the plates are read using a luminescence reader.

[3] = target: T2, PPARs delta (Homo sapiens, UniProt Q03181); assay: PPAR transactivation test, PPAR delta (HeLN reporter cells); format: cell-based; details: luciferase reporter, Gal-hPPAR delta, n.a. means not active, read-out: PPARs delta Kd app
T2 sequence (Q03181 171-441 limits assumed): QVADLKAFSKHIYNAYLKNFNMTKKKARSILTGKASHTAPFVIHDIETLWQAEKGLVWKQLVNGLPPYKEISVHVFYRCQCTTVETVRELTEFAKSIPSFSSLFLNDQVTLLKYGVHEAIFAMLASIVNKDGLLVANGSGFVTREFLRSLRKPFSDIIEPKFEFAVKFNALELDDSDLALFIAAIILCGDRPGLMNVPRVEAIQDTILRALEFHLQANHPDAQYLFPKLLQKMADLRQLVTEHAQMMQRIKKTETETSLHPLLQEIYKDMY
Method: as §1, §2, §3, §4

[4] = target: T3, PPAR alpha (Homo sapiens, UniProt Q07869); assay: PPAR transactivation test, PPAR alpha (HeLN reporter cells); format: cell-based; details: luciferase reporter, Gal-hPPAR alpha, n.a. means not active, read-out: PPAR alpha Kd app
T3 sequence (Q07869 200-468 limits assumed): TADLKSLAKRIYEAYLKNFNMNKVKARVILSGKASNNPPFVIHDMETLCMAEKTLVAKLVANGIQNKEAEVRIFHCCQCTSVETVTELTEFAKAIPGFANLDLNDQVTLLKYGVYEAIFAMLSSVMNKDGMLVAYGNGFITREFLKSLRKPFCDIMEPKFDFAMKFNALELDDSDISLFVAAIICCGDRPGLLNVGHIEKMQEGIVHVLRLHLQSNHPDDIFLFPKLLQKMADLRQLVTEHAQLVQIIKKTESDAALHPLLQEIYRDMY
Method: as §1, §2
as §3, with “The plates are then incubated at 37° C. and 7% CO2 for 16 hours.” left out
The various dilutions of the test products and of the reference ligand are added in a proportion of 5 µl per well. […] After 5 minutes, the plates are read using a luminescence reader.

## CN(CCOc1ccc(CC2SC(=O)NC2=O)cc1)c1ccccn1 (centres unmarked) [Example 1, 5-{4-[2-(methylpyrid-2-ylamino)ethoxy]-benzyl}thiazolidine-2,4-dione]
[1]; Study 1, 0.1% topical
  Mean RI (sebaceous gland size): 0.73
[1]; Study 1, 0.3% topical
  Mean RI (sebaceous gland size): 0.55
[1]; Study 1, 1% topical
  Mean RI (sebaceous gland size): 0.51
[1]; Study 2, 0.1% topical
  Mean RI (sebaceous gland size): 0.83

## COCCOCOc1ccc2cc(C(=O)N(C)Cc3cccc(-c4ccc(CC5SC(=O)NC5=O)cc4)c3)ccc2c1 (centres unmarked) [Example 2, N-methyl-N-[4′-(2,4-dioxothiazolidin-5-yl-methyl)biphenyl-3-ylmethyl]-6-(2-methoxyethoxymethoxy)-naphthalene-2-carboxamide]
[2]
  Kd: 0.0005 µM
[1]; Study 2, 0.003% topical
  Mean RI (sebaceous gland size): 0.82
[1]; Study 2, 0.03% topical
  Mean RI (sebaceous gland size): 0.75
[1]; Study 2, 0.3% topical
  Mean RI (sebaceous gland size): 0.65
[1]; Study 3, 0.3% topical
  Mean RI (sebaceous gland size): 0.66
[1]; Study 4, 0.3% topical
  Mean RI (sebaceous gland size): 0.67

## CCCCCCCNC(=O)N(C)c1cccc(-c2ccc(C[C@H](Nc3ccccc3C(=O)c3ccccc3)C(=O)O)cc2)c1 [Example 3, (S)-3-[3′-(3-heptyl-1-methylureido)biphenyl4-yl]-2-[2-(1-phenylmethanoyl)phenylamino]-propionic acid]
[2]
  Kd: 0.015 µM
[1]; Study 3, 0.01% topical
  Mean RI (sebaceous gland size): 1.02
[1]; Study 3, 0.1% topical
  Mean RI (sebaceous gland size): 0.84
[1]; Study 3, 1% topical
  Mean RI (sebaceous gland size): 0.74
[3]
  Kd: 0.25 µM

## CCCOc1ccc2cc(C(=O)N(C)Cc3cccc(-c4ccc(CC5SC(=O)NC5=O)cc4)c3)ccc2c1 (centres unmarked) [Example 4, N-methyl-N-[4′-(2,4-dioxothiazolidin-5-yl-methyl)biphenyl-3-ylmethyl)-6-propoxynaphthalene-2-carboxamide]
[2]
  Kd: 0.001 µM

## CCCCCCCC(=O)N(C)Cc1cccc(-c2ccc(C[C@H](OCC)C(=O)O)cc2)c1 [Example 5, (S)-2-ethoxy-3-{3′-[(methyloctanoylamino)methyl]biphenyl-4-yl}propionic acid]
[2]
  Kd: 0.002 µM
[3]
  Kd: 4 µM
[4]
  Kd: 0.5 µM

## COCCOCOc1ccc2cc(C(=O)N(C)Cc3cccc(-c4ccc(Nc5ccccc5C(=O)O)cc4)c3)ccc2c1 [Example 6, 2-{3′-[({1-[6-(2-methoxyethoxymethoxy)-naphthalen-2-yl]methanoyl}methylamino)methyl]biphenyl-4-ylamino}benzoic acid]
[2]
  Kd: 0.03 µM

## CN(C)c1ccc(NC(=O)N(C)c2cccc(-c3ccc(C[C@H](Nc4ccccc4C(=O)c4ccccc4)C(=O)O)cc3)c2)cc1 [Example 7, (S)-3-{3′-[3(4-dimethylaminophenyl)-1-methylureido]biphenyl-4-yl}-2-[2-(1-phenylmethanoyl)-phenylamino]propionic acid]
[2]
  Kd: 0.008 µM
[3]
  Kd: 4 µM

## CCCc1nnc([C@H](Cc2ccc(OCCc3nc(-c4ccccc4)oc3C)cc2)Nc2ccccc2C(=O)c2ccccc2)o1 [Negative Control, 1-{2-[(S)-2-{4-[2-(5-methyl-2-phenyloxazol-4-yl)ethoxy]phenyl}-1-(5-propyl[1,3,4]oxadiazol-2-yl)ethylamino]phenyl}-1-phenylmethanone, reference compound]
[1]; Study 4, 0.01% topical
  Mean RI (sebaceous gland size): 1.12
[1]; Study 4, 0.1% topical
  Mean RI (sebaceous gland size): 1.08
[1]; Study 4, 1% topical
  Mean RI (sebaceous gland size): 1.08

## C[C@]12CCC(=O)CC1CCC1C2CC[C@@]2(C)C1CC[C@@H]2O (stereo partly drawn) [Positive Control, 5a-androstan-17β-ol-3-one, reference compound]
[1]; Study 1, 0.3% topical
  Mean RI (sebaceous gland size): 1.73
